The record followed here is patent US20080132562A1, “TETRONIC AND TETRAMIC ACIDS” (priority 2003, published 2008).

pIC50: −log10 of the molar value.

The target of this test is T1, purified BACE protein (β-secretase) (Homo sapiens, UniProt P56817).
T1 construct: made in house
The test is described as follows: Competitive Radioligand Binding Assay (RLBA). Conditions: β-secretase inhibition; displacement of tritiated Compound A tracer from plate-coated BACE, binding buffer pH 4.1; read-out: IC50 in vitro. The method, then:
Competitive Radioligand Binding Assay (RLBA)
96 well microplates (Optiplate Packard) are coated with purified BACE protein (see e.g. GB 2,385,124: Examples 1 and 2) using a concentration of 1 μg/ml in 30 mM sodium citrate buffer adjusted to pH 5.5. The coating is achieved by incubation of 100 μl/well for 1-3 days at 4° C. The plate is then washed with 2×300 μl/well of 10 mM citrate pH 4.1. To each well 100 μl binding buffer (30 mM citrate, 100 mM NaCl, 0.1% BSA, pH 4.1) is dispensed. The test compound is added in 5 μl from a DMSO stock solution or appropriate dilutions. To this the tracer (tritiated Compound A, see e.g. GB 2,385,124: Example 4) is added in 10 μl/well from a 10 μCi/ml stock solution in binding buffer. After incubation for 1.5-2 hours in a humid chamber at ambient temperature the plate is washed with 2×300 μl/well water and flipped on a dry towel. Following the addition of 50 μl/well MicroScint20 (Packard) the plate is sealed and vibrated for 5 seconds. The bound radioactivity is counted on a Topcount (Packard). Total binding is typically between 2000 and 10000 cpm/well depending mainly on the purity and concentration of the BACE protein. Non-specific binding as assessed by competition with >1 μM peptidic inhibitor (Bachem #H-4848) is typically between 30 and 300 cpm/well. The IC-50 values are calculated by Microsoft Excel FIT.

T1 sequence (P56817 46-501): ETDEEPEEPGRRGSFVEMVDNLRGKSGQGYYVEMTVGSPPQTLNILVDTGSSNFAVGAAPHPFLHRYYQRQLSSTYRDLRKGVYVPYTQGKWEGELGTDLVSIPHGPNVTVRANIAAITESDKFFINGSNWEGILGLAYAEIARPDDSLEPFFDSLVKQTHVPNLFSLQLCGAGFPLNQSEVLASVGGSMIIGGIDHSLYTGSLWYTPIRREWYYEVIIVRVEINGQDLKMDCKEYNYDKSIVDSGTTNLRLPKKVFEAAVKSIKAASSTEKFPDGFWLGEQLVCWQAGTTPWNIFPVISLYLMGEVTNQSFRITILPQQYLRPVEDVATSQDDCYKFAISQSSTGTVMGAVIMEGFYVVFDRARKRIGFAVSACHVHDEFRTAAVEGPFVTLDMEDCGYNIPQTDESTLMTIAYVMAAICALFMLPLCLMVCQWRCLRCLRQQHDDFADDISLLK

One may read the pIC50 as the negative decadic logarithm of the IC50, by convention in mol/L. For the compound `O=C(Cc1cn(Cc2ccc(F)cc2)c2ccccc12)C1=C(O)C(CC2CCCCC2)OC1=O` (stereo not drawn) [Example C19, 5-Cyclohexylmethyl-3-{[1-(4-fluoro-benzyl)-1H-indol-3-yl]-acetyl}-4-hydroxy-5H-furan-2-one], the pIC50 is 4.82.
In the case of `O=C(CC(c1ccccc1)c1ccccc1)C1=C(O)C(CCc2ccccc2)(c2ccccc2)OC1=O` (stereo not drawn) [Example J4, 3-(3,3-Diphenyl-propionyl)-4-hydroxy-5-phenethyl-5-phenyl-5H-furan-2-one] it was 4.39; in that of `O=C(CC(c1ccccc1)c1ccccc1)C1=C(O)C(CCCN2CCOCC2)OC1=O` (stereo not drawn) [Example G29, 3-(3,3-Diphenyl-propionyl)-4-hydroxy-5-(3-morpholin-4-yl-propyl)-5H-furan-2-one], 4.07; in that of `O=C(Cn1c2ccccc2c2ccccc21)C1=C(O)C(CCc2ccccc2)NC1=O` (stereo not drawn) [Example K46, 3-(Carbazol-9-yl-acetyl)-4-hydroxy-5-phenethyl-1,5-dihydro-pyrrol-2-one], 4.44.
With `CC(Cc1ccc(OCc2ccccc2)cc1)C(=O)C1=C(O)C(CC2CCCCC2)OC1=O` (stereo not drawn) [Example C9, 3-[3-(4-Benzyloxy-phenyl)-2-methyl-propionyl]-5-cyclohexylmethyl-4-hydroxy-5H-furan-2-one], the pIC50 is 4.89.
As to `NC(Cc1ccc(OCc2ccccc2)cc1)C(=O)C1=C(O)C(CCc2ccccc2)NC1=O` (stereo not drawn) [Example K38, 3-[2-Amino-3-(4-benzyloxy-phenyl)-propionyl]-4-hydroxy-5-phenethyl-1,5-dihydro-pyrrol-2-one; compound with trifluoro-acetic acid], the pIC50 was 4.80.
For `COc1ccc(Cl)cc1C(=O)NCCc1ccc(CC(C)C(=O)C2=C(O)C(CC3CCCCC3)OC2=O)cc1` (stereo not drawn) [Example C12, 5-Chloro-N-(2-{4-[3-(5-cyclohexylmethyl-4-hydroxy-2-oxo-2,5-dihydro-furan-3-yl)-2-methyl-3-oxo-propyl]-phenyl}-ethyl)-2-methoxy-benzamide], the pIC50 is 4.92.
In the case of `O=C(Cc1c[nH]c2ccccc12)C1=C(O)C(CCCc2ccccc2)OC1=O` (stereo not drawn) [Example F5, 4-Hydroxy-3-[(H-indol-3-yl)-acetyl]-5-(3-phenyl-propyl)-5H-furan-2-one] it was 4.85.
As for `CC(Cc1ccc(C(C)(C)C)cc1)C(=O)C1=C(O)C(Cc2ccccc2)OC1=O` (stereo not drawn) [Example D2, 5-Benzyl-3-[3-(4-tert-butyl-phenyl)-2-methyl-propionyl]-4-hydroxy-5H-furan-2-one], the pIC50 was 4.48.
With `CC1(CCc2ccccc2)OC(=O)C(C(=O)CC2c3ccccc3-c3ccccc32)=C1O` (stereo not drawn) [Example I7, 3-[(9H-Fluoren-9-yl)-acetyl]-4-hydroxy-5-methyl-5-phenethyl-5H-furan-2-one], the pIC50 is 4.51.
Consider `O=C(CCCC1CCCCC1)C1=C(O)C(CCc2ccccc2)OC1=O` (racemic) [Example E7, Rac-3-(4-cyclohexyl-butyryl)-4-hydroxy-5-phenethyl-5H-furan-2-one], for which the pIC50 was 4.24.
`O=C(Cn1c2ccccc2c2ccccc21)C1=C(O)C(CC2CCCCC2)OC1=O` (stereo not drawn) [Example C33, 3-(Carbazol-9-yl-acetyl)-5-cyclohexylmethyl-4-hydroxy-5H-furan-2-one]: the pIC50 was 4.96.
